Legend:
[1] = target: IKKε (Homo sapiens (Human), UniProt Q14164); test: IKKε TR-FRET enzymatic assay; assay type: biochemical; details: read-out: IKKe IC50
[2] = target: hJAK2 (Homo sapiens (Human), UniProt O60674); test: hJAK2 LANCE TR-FRET enzymatic assay; assay type: biochemical; details: read-out: JAK2 IC50
[3] = target: TBK1 (Homo sapiens (Human), UniProt Q9UHD2); test: TBK1 TR-FRET enzymatic assay;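 also: phosphorylation of a biotinylated Ser/Thr peptide by purified full-length recombinant TBK1, read by TR-FRET after 240 min at 25 °C, IC50 is the geometric mean of at least four runs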
Chain of TBK1 (Q9UHD2 whole entry): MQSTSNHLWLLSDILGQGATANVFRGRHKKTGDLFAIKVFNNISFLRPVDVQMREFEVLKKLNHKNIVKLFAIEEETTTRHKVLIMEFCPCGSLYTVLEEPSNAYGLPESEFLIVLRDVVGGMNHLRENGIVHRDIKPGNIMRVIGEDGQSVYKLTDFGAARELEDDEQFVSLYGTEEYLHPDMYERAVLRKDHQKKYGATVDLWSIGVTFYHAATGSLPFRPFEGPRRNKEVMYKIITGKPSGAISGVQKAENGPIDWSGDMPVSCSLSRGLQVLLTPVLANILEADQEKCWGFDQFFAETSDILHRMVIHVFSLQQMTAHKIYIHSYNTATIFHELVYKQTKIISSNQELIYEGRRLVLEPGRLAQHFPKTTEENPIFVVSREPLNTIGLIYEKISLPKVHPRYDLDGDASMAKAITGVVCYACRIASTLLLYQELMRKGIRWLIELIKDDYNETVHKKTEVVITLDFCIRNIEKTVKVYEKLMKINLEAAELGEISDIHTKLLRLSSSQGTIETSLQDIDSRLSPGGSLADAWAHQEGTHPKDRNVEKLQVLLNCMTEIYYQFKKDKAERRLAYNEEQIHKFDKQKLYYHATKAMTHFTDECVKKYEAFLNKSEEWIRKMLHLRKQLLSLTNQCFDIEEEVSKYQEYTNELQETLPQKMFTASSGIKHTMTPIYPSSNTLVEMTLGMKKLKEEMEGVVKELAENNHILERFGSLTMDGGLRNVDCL

Chain of IKKε (Q14164 whole entry): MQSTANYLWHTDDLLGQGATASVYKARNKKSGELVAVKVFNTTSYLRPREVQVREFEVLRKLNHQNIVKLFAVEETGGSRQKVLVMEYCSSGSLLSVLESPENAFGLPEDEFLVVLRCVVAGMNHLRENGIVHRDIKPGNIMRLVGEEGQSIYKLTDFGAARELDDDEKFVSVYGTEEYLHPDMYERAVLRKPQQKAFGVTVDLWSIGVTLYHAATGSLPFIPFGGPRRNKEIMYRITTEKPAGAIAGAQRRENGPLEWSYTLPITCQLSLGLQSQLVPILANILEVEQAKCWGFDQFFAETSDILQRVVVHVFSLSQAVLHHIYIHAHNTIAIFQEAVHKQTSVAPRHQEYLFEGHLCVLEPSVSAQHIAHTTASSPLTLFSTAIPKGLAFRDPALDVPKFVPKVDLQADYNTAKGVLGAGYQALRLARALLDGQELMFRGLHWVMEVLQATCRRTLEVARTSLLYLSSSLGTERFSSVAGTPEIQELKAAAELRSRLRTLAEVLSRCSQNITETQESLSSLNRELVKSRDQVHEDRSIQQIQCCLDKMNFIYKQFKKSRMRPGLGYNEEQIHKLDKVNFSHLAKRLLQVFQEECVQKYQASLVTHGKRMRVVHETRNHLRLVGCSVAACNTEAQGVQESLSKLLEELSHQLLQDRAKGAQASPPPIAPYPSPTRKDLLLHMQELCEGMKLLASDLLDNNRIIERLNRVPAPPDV
Chain of hJAK2 (O60674 whole entry): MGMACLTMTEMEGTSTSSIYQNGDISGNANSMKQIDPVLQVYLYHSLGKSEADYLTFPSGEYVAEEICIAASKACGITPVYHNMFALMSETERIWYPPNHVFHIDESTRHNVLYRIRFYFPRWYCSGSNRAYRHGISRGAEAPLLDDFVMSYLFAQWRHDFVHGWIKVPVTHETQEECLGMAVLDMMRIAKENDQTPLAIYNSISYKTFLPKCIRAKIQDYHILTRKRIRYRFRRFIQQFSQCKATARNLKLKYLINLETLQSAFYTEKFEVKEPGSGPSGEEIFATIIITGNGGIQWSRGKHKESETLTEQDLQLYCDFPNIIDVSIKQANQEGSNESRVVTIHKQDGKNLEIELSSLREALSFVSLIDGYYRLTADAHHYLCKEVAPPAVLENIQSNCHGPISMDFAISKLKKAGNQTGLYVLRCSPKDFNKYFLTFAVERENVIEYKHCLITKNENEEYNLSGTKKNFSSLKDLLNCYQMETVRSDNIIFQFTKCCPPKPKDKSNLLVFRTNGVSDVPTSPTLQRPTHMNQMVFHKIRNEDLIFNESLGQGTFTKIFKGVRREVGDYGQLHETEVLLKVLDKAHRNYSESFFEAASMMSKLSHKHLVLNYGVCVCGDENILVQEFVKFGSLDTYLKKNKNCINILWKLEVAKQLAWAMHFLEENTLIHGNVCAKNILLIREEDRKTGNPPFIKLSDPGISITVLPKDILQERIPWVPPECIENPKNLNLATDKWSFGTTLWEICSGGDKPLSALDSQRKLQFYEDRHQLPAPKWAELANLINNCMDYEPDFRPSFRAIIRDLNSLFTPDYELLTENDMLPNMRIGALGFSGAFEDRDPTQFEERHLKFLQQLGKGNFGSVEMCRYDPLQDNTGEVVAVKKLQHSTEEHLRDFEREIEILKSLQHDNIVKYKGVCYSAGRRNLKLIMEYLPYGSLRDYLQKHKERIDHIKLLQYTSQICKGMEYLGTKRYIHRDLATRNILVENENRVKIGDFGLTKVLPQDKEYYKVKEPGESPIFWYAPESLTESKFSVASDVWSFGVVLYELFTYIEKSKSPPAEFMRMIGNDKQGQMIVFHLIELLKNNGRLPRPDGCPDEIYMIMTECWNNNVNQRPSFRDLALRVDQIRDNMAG

Row | IC50 [1] | IC50 [2] | IC50 [3] | SMILES
1 | 1 nM | ≥ 1000 nM | 4 nM | C[C@H](O)C(=O)N1CC[C@H](Oc2ccc(-c3ncnc(Nc4ccc([C@H]5CCCN5)cc4)n3)cc2C#N)[C@H](F)C1 [Example 615, 2-(((3R,4S)-3-fluoro-1-((S)-2-hydroxypropanoyl)piperidin-4-yl)oxy)-5-(4-((4-((R)-pyrrolidin-2-yl)phenyl)amino)-1,3,5-triazin-2-yl)benzonitrile]
2 | 4 nM | ≥ 1000 nM | 5 nM | C[C@H](O)C(=O)N1CC[C@H](Oc2ccc(-c3ncnc(Nc4ccc([C@H]5CCCN5C5COC5)cc4)n3)cc2C#N)[C@H](F)C1 [Example 616, 2-(((3R,4S)-3-fluoro-1-((S)-2-hydroxypropanoyl)piperidin-4-yl)oxy)-5-(4-((4-((R)-1-(oxetan-3-yl)pyrrolidin-2-yl)phenyl)amino)-1,3,5-triazin-2-yl)benzonitrile]
3 | 75 nM | 226 nM | 29 nM | COC[C@@H](O)C(=O)N1CC[C@H](Oc2ccc(-c3ncnc(Nc4ccc(N5CCN(C6COC6)CC5)cc4)n3)cc2C#N)[C@H](F)C1 [Example 617, 2-(((3R,4S)-3-fluoro-1-((R)-2-hydroxy-3-methoxypropanoyl)piperidin-4-yl)oxy)-5-(4-((4-(4-(oxetan-3-yl)piperazin-1-yl)phenyl)amino)-1,3,5-triazin-2-yl)benzonitrile]
4 | 1 nM | 162 nM | 2 nM | COC[C@H](O)C(=O)N1CC[C@H](Oc2ccc(-c3ncnc(Nc4ccc(N5CCN(C6COC6)CC5)cc4)n3)cc2C#N)[C@H](F)C1 [Example 618, 2-(((3R,4S)-3-fluoro-1-((S)-2-hydroxy-3-methoxypropanoyl)piperidin-4-yl)oxy)-5-(4-((4-(4-(oxetan-3-yl)piperazin-1-yl)phenyl)amino)-1,3,5-triazin-2-yl)benzonitrile]

Source: patent publication US10040781B2, “Tank-binding kinase inhibitor compounds” (Gilead Sciences, Inc., priority 2014, dated 2018)
